# Patent publication US20170298056A1, “SMALL MOLECULE INHIBITORS OF HIV-1 ENTRY AND METHODS OF USE THEREOF” (Dana-Farber Cancer Institute, Inc., priority 2014, published 2017)
# What was measured:
# Type in all cases: cell-based
# [1] = test system: HIV-1ADA; assay: Viral infection assay, ADA Env (wild type, ΔV1V2, CD4-independent N197S); conditions: for Fold change: mutant/wild-type IC50
# Method: To study CD4-independent infection, the full-length HIV-1ADA N197S Env mutant was used. This Env is an ADA-HXBc2 chimera with an N197S change. The control “wild-type” ADA Env used in these experiments is also an ADA-HXBc2 chimera.
# (§1) Production of recombinant HIV-1 expressing luciferase. […] After 48 hours, the supernatant was collected, buffered with 50 mM Hepes pH 7.4 (final concentration) and centrifuged for 5 minutes at 750×g and 4° C. The virus-containing supernatant was used directly or frozen at −80° C.
# (§2) Viral infection assay. Each test compound was serially diluted in DMSO in a 96-well B&W isoplate (PerkinElmer, Boston, Mass.) using an HP D300 Digital Dispenser, to a final volume of 450 nl. DMSO was used as a control. Viruses pseudotyped with a specific Env were added to each well and incubated briefly at room temperature. Cf2Th-CD4/CCR5 cells were detached with StemPro Accutase Cell Dissociation Reagent (Invitrogen, cat #A11105-01), washed once, and 5000 cells were added to each well. […] Following incubation, the medium was aspirated and cells were lysed with 30 μl of Passive Lysis Buffer (Promega, cat #E1941). The activity of the firefly luciferase, which was used as a reporter protein in the system, was measured with a Centro LB 960 luminometer (Berthold Technologies, Oak Ridge, Tenn.). One hundred microliters of assay buffer (15 mM MgSO4, 15 mM KH2PO4/K2HPO4 pH 7.8, 1 mM ATP and 1 mM DTT) was injected to each well, followed by a 50 μl injection of 1 mM Dluciferin potassium salt (BD Pharmingen, San Jose, Calif.); luminescence was measured for 2 sec. Infection of PBMC was done as above, but 20,000-40,000 cells/well and viruses concentrated by ultracentrifugation were used. After four hours of incubation with viruses, the cells were centrifuged at 200×g for 6 minutes at 4° C., resuspended in 100 μl RPMI-PBMC medium and incubated at 37° C. for an additional 36-40 hours (total 40-44 hours). Supernatant was removed after centrifugation at 400×g for 5 minutes and cells were processed to detect luciferase activity, as described above.
# [2] = test system: SIVmac239; assay: Viral infection assay, SIV Env; conditions: virus with SIVmac239 Env
# Method: as §1
# as §2, with “Infection of PBMC was done as above, but 20,000-40,000 cells/well and viruses concentrated by ultracentrifugation were used. After four hours of incubation with viruses, the cells were centrifuged at 200×g for 6 minutes at 4° C., resuspended in 100 μl RPMI-PBMC medium and incubated at 37° C. for an additional 36-40 hours (total 40-44 hours). Supernatant was removed after centrifugation at 400×g for 5 minutes and cells were processed to detect luciferase activity, as described above.” left out
# [3] = test system: CEM #21 cells; assay: Viability assay, CEM#21 target cells
# Method: H-JRFL#1336 (effector) and H-Fluc4 (control) cells were grown in DMEM containing 10% FBS, 100 μg/ml streptomycin, 100 units/ml penicillin, 200 μg/ml G418, 1 μg/ml puromycin and 2 μg/ml doxycycline. H-JRFL#13 cells carry an HIV-1JR-FL env gene that is induced by growing the cells in the absence of doxycycline (Tet-Off expression system). H-Fluc4 cells, which carry a firefly luciferase gene that is induced in the absence of doxycycline, were used as specificity controls. Both cell lines were derived from HeLa cells and constitutively express the tetracycline-regulated transactivator (Tet-Off expression system). CEM#21 target cells were grown in RPMI containing 10% FBS, 100 μg/ml streptomycin, 100 units/ml penicillin and 1 μg/ml puromycin. […]
# Viability Assay. […] The plate was equilibrated to room temperature, 15 μl of CellTiterGlo (Promega) was added to each well and luminescence was measured as described above. […] 30 μl (Cf2Th cells) or 100 μl (PBMC) of CellTiterGlo was added and luminescence was measured as described above.
compound,measurement,setting,value
O=C(N/N=C/c1ccc(O)cc1)Nc1cccc2nsnc12 [Compound 18A],IC50,[1]; ADA Env wild type,12.8 ± 1.5 µM
same,Fold change,[1]; ADA Env wild type,1
same,IC50,[1]; ADA Env ΔV1V2,10.8 ± 2 µM
same,Fold change,[1]; ADA Env ΔV1V2,0.8
same,"infection of CD4-negative, CCR5-expressing cells",[1]; CD4-independent HIV-ADA N197S,"protected CD4-negative, CCR5-expressing cells from infection"
same,entry into CD4/CCR5-expressing cells,[1]; wild-type HIV-1ADA and HIV-1ADA N197S,blocked by 18A with a similar profile of inhibition
same,inhibition of infection,[2],significantly less potent
same,CC50,[3],26.6 ± 2.1 µM
